Assay results taken from patent publication US12428428B2, “Tricyclic tetrahydroisoquinoline derivative, preparation method therefor and application thereof in medicine” (JIANGSU HENGRUI MEDICINE CO., LTD., priority 2020, dated 2025).

Tests used:
Assay type in all cases: cell-based
ER (estrogen receptor) = ER (estrogen receptor) (Homo sapiens (Human), UniProt P03372); assay: Inhibition of binding of E to ER (MCF-7/ERE-luciferase reporter cells); conditions: MCF-7/ERE-luciferase cells, 0.1 nM estradiol, 24 h
Experimental: The compounds of the present disclosure can inhibit the binding of E (estrogen) to ER (estrogen receptor), thereby blocking the binding of the complex of E and ER to ERE (estrogen response element), and consequently the expression of downstream luciferase proteins. The inhibitory effects of the compounds of the present disclosure on the binding of E to ER was tested by using the following method.
An ERE was cloned upstream of the luciferase gene, and MCF-7/ERE-luciferase monoclonal cells were selected by transfection of MCF-7 (TCHu74, National Collection of Authenticated Cell Cultures). The MCF-7/ERE-luciferase cells were seeded into a 96-well plate with an MEM (hyclone, SH30024.01B) medium containing 10% charcoal stripped FBS (Moregate, FBSF), 1% sodium pyruvate (sigma, S8636), 1% non-essential amino acids (sigma, M7145) and 500 μg/mL G418 at a density of 30,000 cells/well and cultured at 37° C. with 5% CO2. 20 mM stock solutions of the drugs are prepared, serially diluted 10-fold with 100% DMSO, and then diluted 20-fold with the medium. After the cells were cultured for 24 h, the medium was removed. 0.1 nM estradiol (sigma, E2758) and 10 μL of a medium-diluted drug were added to each well, and DMSO was added to the control group. The mixtures were well mixed by gentle shaking. The cells were cultured in an incubator at 37° C. with 5% CO2 for 24 h, and then the cell culture liquid was removed, followed by the addition of 50 μL of a luciferase substrate (Promega, E6110) to each well. The plate was let stand at room temperature in the dark for 10-15 min, and the chemiluminescence signal values were determined.
The inhibitory effects of the compounds of the present disclosure on the binding of E to ER were tested through the above experiment. The chemiluminescence signal value was plotted against the compound concentration (in log form) using Graphpad Prism, and the IC50 values of the compounds were obtained.

MCF-7 cells = assay: Inhibition of proliferation of MCF-7 cells (ATP method, Cell Titer-Glo); conditions: for IC50: Homo sapiens, MCF7, MCF-7 cells, 72 h; for inhibitory effects on the proliferation of MCF-7 cells (in words): conclusion
Experimental: This experiment was intended to test the inhibitory effects of the compounds disclosed herein on the proliferation of MCF-7 Cells by using the ATP method, and to evaluate the in vitro activity of the compounds according to the IC50 values.
MCF-7 cells (TCHu74, National Collection of Authenticated Cell Cultures) were seeded into a 96-well plate with an MEM (hyclone, SH30024.01B) medium containing 10% FBS (Gibco, 10099-141), 1% sodium pyruvate (sigma, 58636) and 1% non-essential amino acid (sigma, M7145) at a density of 4,000 cells/well and cultured at 37° C. with 5% CO2. 20 mM stock solutions of the compounds are prepared, serially diluted with 100% DMSO to a final concentration of 1000×, and then diluted 20-fold with a medium containing 2% FBS. After the cells were cultured for 24 h, the medium was removed. 90 μL of the medium containing 2% FBS and 10 μL of a drug were added to each well, and 10 μL of DMSO was added to the control group. The mixtures were well mixed by gentle shaking. The blank group contained only 100 μL of the medium containing 2% FBS. The cells were cultured in an incubator at 37° C. with 5% CO2 for 72 h, and then 50 μL of mixed Cell Titer-Glo (Promega, G7571) was added to each well. The mixtures were well mixed by shaking and let stand at room temperature for 10 min, and the chemiluminescence signal values were determined.
The chemiluminescence signal value was plotted against the compound concentration (in log form) using Graphpad Prism, and the IC50 values of the compounds were obtained.

ERα = ERα (Homo sapiens (Human), UniProt P03372); assay: Degradation of ERα in MCF-7 cells (ELISA); conditions: for DC50: MCF-7 cells, 16 to 18 h, read-out: EC50 (nM), degradation of ERα; for degradation of ERα (in words): conclusion
Experimental: ERα-positive breast cancer cell line MCF-7 cells were cultured in a DMEM/F12 medium (HyClone, SH30023.01) containing 10% fetal bovine serum (Corning, 35-010-CV). […] The following day the compounds were serially diluted with DMSO and further diluted with the phenol red-free DMEM/F12 medium containing 5% charcoal-stripped fetal bovine serum. 20 μL of a diluted compound was added to each well of the 48-well plate at final concentrations of 3000, 300, 30, 3, 0.3, 0.03 and 0.003 nM. The 48-well plate was placed in the incubator for 16 to 18 h. A 96-well plate was coated with the capture antibody from the human ERα/NR3A1 total protein assay kit (R&D, DYC5715-5). […] The plate was placed in an incubator at 26° C. overnight. On day 3, the antibody-coated 96-well plate was washed once with PBS, and 200 μL of PBS containing 1% BSA was added to each well. The plate was incubated in an incubator at 37° C. for 1.5 h to be blocked. The cell culture medium supernatant was discarded. The cells were washed once with PBS, and 60 μL of a cell lysis buffer was added to each well. […] The cells were lysed on ice for 15 min, and 300 μL of PBS containing 1 mM EDTA and 0.5% TritonX-100 was added to each well to dilute the urea to 1 M. The blocking buffer in the blocked 96-well plate was discarded, and 100 μL of diluted cell lysis buffer was added to each well. The plate was incubated in an incubator at 37° C. for 2 h and washed 5 times with PBS. A biotinylated assay antibody was diluted to 0.4 μg/mL with PBS containing 1% BSA, and then 100 μL of the assay antibody was added to each well. The plate was incubated in an incubator at 37° C. for 1 h. The plate was then washed five more times, and 100 μL of avidin-HRP diluted 200-fold with PBS containing 1% BSA was added to each well. The plate was incubated at 37° C. for 30 min. The plate was washed five more times, and 100 μL of TMB substrate was added to each well. The plate was incubated at room temperature until blue color appeared, and 100 μL of stop solution was added to each well. OD450 signal values were read using a PHERAstar multi-mode microplate reader. The IC50 values for the inhibitory activity of the compounds were calculated using Graphpad Prism software.

Sequence of ERα (P03372 whole entry): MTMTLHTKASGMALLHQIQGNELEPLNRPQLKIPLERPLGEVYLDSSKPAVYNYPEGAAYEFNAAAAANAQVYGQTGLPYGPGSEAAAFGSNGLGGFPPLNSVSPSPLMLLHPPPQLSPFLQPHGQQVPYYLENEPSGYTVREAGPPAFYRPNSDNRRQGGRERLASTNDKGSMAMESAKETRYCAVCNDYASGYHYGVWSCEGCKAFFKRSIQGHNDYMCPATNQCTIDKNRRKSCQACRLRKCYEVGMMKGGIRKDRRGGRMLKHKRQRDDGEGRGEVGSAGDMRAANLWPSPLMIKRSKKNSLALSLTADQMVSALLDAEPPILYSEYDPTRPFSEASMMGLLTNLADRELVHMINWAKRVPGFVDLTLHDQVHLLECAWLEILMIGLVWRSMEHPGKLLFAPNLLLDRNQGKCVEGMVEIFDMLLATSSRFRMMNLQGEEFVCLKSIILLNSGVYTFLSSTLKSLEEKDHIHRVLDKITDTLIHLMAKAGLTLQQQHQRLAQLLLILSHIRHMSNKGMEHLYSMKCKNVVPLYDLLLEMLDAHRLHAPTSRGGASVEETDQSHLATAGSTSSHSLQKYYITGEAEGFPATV
Sequence of ER (estrogen receptor) (P03372 whole entry): as above

Row | IC50 (ER (estrogen receptor)) [nM] | IC50 (MCF-7 cells) [nM] | DC50 (ERα) [nM] | degradation of ERα (in words) (ERα) | SMILES | inhibitory effects on the proliferation of MCF-7 cells (in words) (MCF-7 cells)
1 | 0.27 | – | – | – | C[C@@H]1Cc2cc3c(cc2[C@@H](c2ccc(NC4CN(CCCF)C4)cc2)N1CC(F)(F)F)OCO3 [Example 16, 1-(3-Fluoropropyl)-N-(4-((5R,7R)-7-methyl-6-(2,2,2-trifluoroethyl)-5,6,7,8-tetrahydro-[1,3]dioxolo[4,5-g]isoquinolin-5-yl)phenyl)azetidin-3-amine] | –
2 | – | > 10000 | > 10000 | no activity | C[C@@H]1Cc2ccc3c(c2[C@@H](c2ccc(NC4CN(CCCF)C4)cn2)N1CC(F)(F)CO)C(=O)NC3=O [Example 20, (7R,9S)-8-(2,2-difluoro-3-hydroxypropyl)-9-(5-((1-(3-fluoropropyl)azetidin-3-yl)amino)pyridin-2-yl)-7-methyl-6,7,8,9-tetrahydro-1H-pyrrolo[3,4-h]isoquinoline-1,3(2H)-dione, reference compound] | no activity
3 | – | > 10000 | > 10000 | no activity | C[C@@H]1Cc2ccc3c(=O)[nH][nH]c(=O)c3c2[C@@H](c2ccc(NC3CN(CCCF)C3)cn2)N1CC(F)(F)CO [Example 21, reference compound] | no activity
